Data on 86 molecules can be found in a melting point compilation (Tetko et al.; mined from patent text by program, amines drawn as free bases though some values may be those of a salt).

Residues, ends and D or L forms follow the SMILES beside them. A value given as a limit tells only on which side of the number the result lay.

For orientation: melting point means the temperature, or range, at which the solid turns liquid. In turn, `Cn1ncc(C(=O)N2CCOCC2)c1C(=O)Nc1ccn2nc(-c3ccccc3)nc2c1` displayed a melting point of 203 to 207 °C.
`CN(CCc1ccc(O)cc1)[C@H]1CC[C@H](c2ccccc2)CC1` gave a melting point of 97 to 105 °C.
Consider `COc1cc(C)cc2ncc(Br)n12`, for which the melting point lay in the range of 105 to 106 °C.
`CCCc1nn(C)c2c(=O)[nH]cnc12` gave a melting point of 199 to 200 °C.
The molecule `CCOc1cccc(CC(=O)O)c1OCCCc1cn(-c2ccc(C(F)(F)F)cn2)nc1C1CCCCC1` showed a melting point of 156 to 157 °C.
To `O=C1c2ccccc2C(=O)N1c1cccc(Br)c1` belongs 176 to 179 °C; to `CCCc1ccccc1OCCCCCOc1ccc2c(=O)cc(C(=O)OCC)oc2c1CCC`, 73 to 75 °C.
Then `CC(C)(C)c1ccc(CN=C2SCN(c3ccccc3)C(=O)N2CC(F)(F)F)cc1`, with 90 to 91.5 °C.
Then `CCCCc1nc(Cl)c(CC(=O)OCC)c(Cc2ccc(C(=O)OC(C)(C)C)cc2)n1`, with 65 °C; and `COc1ccc2c(c1)c(CC(=O)O)c(C)n2C(=O)c1ccc(OC(F)(F)F)cc1`, with 136 to 138 °C; and `O=C(C(=O)c1ccc(Oc2cccc(Br)c2)cc1)c1ccccc1`, with 75 to 76 °C.
`COC(=O)[C@H](Cc1ccc(NC(=O)c2c(Cl)cccc2Cl)cc1)NC(=S)C1(CCCCS(C)(=O)=O)CCCC1` yielded a melting point of 200 to 202 °C.
Turning to `COc1cc(S(C)(=O)=O)ccc1-c1nc2cc3c(cc2[nH]1)N(C(C)=O)CC3(C)C`, the melting point fell in the range of 223 to 225 °C.
To `OC1(c2ccc(-c3ccccc3)nc2)CN2CCC1CC2` (stereo unspecified) belongs 214 °C; to `COc1cc2c(cc1O)CCN(Cc1cccc(OC(C)=O)c1)C2`, 120 to 122 °C; to `N#Cc1cc(S(=O)(=O)c2ccc([N+](=O)[O-])cc2)cc(Br)n1`, 158 to 160 °C.
Molecule `CCCCCCCCCCCCCC(=O)Nc1cc(NC(=O)CCCCCCCCCCCCC)cc(C(=O)N(CC(=O)O)CC(=O)O)c1` yielded a melting point of 109 to 111 °C.
For the molecule `CC(C)(C)C(COC(N)=O)(NC(=O)C(=O)c1c[nH]c2ccc(Br)cc12)c1c[nH]c2ccc(Br)cc12` (stereo unspecified), the melting point came to 207 °C.
Then `CC(=O)c1ccc2c(c1)C=CC(=CCl)CO2`, with 85 to 90 °C.
Then `COCOc1ccc(C(=O)OC)c(O)c1C`, with 73.8 to 74 °C; and `O=C(Nc1ccc(OC(F)(F)F)cc1)N1CC(c2sncc2C(F)(F)F)C(c2ccc(Cl)cc2)=N1` (stereo unspecified), with 101 to 104 °C.
Then `COC(=O)CCc1c(Cc2ccccc2C(F)(F)F)sc2c1c(=O)n(C)c(=O)n2CC(C)C`, with 86 to 88 °C; and `Cc1nc(C)c(-c2ccnc(Nc3cccc(CN)c3)n2)s1`, with 183 to 184 °C; and `Cc1cc(-c2cc(COS(C)(=O)=O)c(=O)n(CC(C)C)n2)ccc1F`, with 115 to 117 °C.
For `O=S(=O)(O)c1cc(NCc2c(F)c(F)c(C(F)(F)F)c(F)c2F)ccc1O`, the melting point was above 300 °C.
To `COC=Nc1c(C#N)c(C)nn1-c1c(Cl)cc(C(F)(F)F)cc1Cl` belongs 75 to 78 °C; to `N#CCNC(=O)C(=O)Oc1ccc([N+](=O)[O-])cc1`, 123 to 124 °C; to `CC(=O)c1cc2c(=O)n(NS(C)(=O)=O)c(=O)[nH]c2cc1C(F)(F)F`, 258 to 265 °C.
Then `CC(C)n1nc(-c2cc(N)cnc2-c2ccccc2)ccc1=O`, with 147 to 148 °C; and `COc1cc(CN[C@@H](CC(C)C)C(=O)N2CCN(C(c3ccc(F)cc3)c3ccc(F)cc3)CC2)cc(OC)c1OC`, with 58 to 62 °C.
On to `COc1c(Cl)ccc2c1C(O)(c1ccccc1Cl)C(=O)N2` (stereo unspecified), for which the melting point lay in the range of 228 to 229 °C.
Then `O=C(Nc1ccc(O)cc1)C(=O)Nc1ccc(O)cc1`, with above 250 °C; and `O=S1(=O)CC2(CCCCC2)[C@@H](O)[C@H](c2ccccc2)c2ccccc21` (relative stereo), with 99 to 100 °C; and `CCC(NC(=NC#N)Nc1cccnc1)c1cccc(Cl)c1` (stereo unspecified), with 153 to 155 °C.
The molecule `Cc1cccc(OCC(F)(F)F)c1NC(=O)CCl` returned a melting point of 128 to 129 °C.
Then `Cc1cc(NC(=O)C2=C(O)c3ccc4ccccc4c3S(=O)(=O)N2C)no1`, with 253 °C.
To `COC(=O)Cc1csc2c(OCc3cc(-c4ccc(Cl)cc4)on3)cccc12` belongs 155 to 156 °C; to `COCCc1nc2c(N)nc3ccccc3c2n1CCOCCNC(=O)Nc1ccccc1`, 171 to 174 °C; to `Cc1cccc(-n2nnc3cccnc32)n1`, 144 to 145 °C.
To `Cc1ccc(S(=O)(=O)NC(C)(C)CO)cc1NC(=O)c1cnn2c(C(F)F)cc(-c3ccc(C(F)(F)F)cc3)nc12` belongs 214 °C; to `C=CCOc1ccc(-c2cc3ccccc3[nH]2)cc1`, 214 °C; to `COC(C)OC(=O)C1CC(=O)N(c2ccc(C(C)(C)C)cc2)C1` (stereo unspecified), 60 to 61 °C.
For the molecule `O=c1cc(-c2ccc(Cl)cc2)sc(N2CCOCC2)c1`, the melting point is 202 to 204 °C.
Then `Cc1oc(-c2ccccc2)nc1CC=Cc1ccc(CCCC2OC(=O)NC2=O)cc1` (stereo unspecified), with 136 to 137 °C; and `CC(C)c1ccc(NC(=O)Nc2cccc(C(=O)O)c2)cc1`, with 295 to 300 °C; and `CCN1C(=O)C(=C(Cc2ccccc2)OC)SC1=S`, with 120 to 122 °C.
For the molecule `O=CNCC(O)(Cn1cncn1)c1ccc(Cl)cc1Cl` (stereo unspecified), the melting point stood at 157 °C.
On to `O=c1[nH]c2cc(Cl)cc(OCCNCc3cccs3)c2[nH]1`, for which the melting point was in the range of 179 to 180 °C.
Then `COC[C@H]1CCCN1NC(=O)Nc1cccc2c1C(=O)c1c-2n[nH]c1-c1ccc(C(=O)N2CCN(C)CC2)s1`, with 181 to 183 °C.
Regarding `CCOC(=O)c1sc2[nH]c(=O)ccc2c1Br`, the melting point lay in the range of 262 to 268 °C.
`COc1cc(C(C)=O)ccc1OCCCN1C2CCC1CC(c1n[nH]c3ccccc13)C2` (stereo unspecified) had a melting point of 173 to 175 °C.
On to `CC(C)NC(=O)C1c2cc(NC(=O)c3cc(C(F)(F)F)nn3-c3ncccc3Cl)c(Cl)cc2CC1O` (stereo unspecified), for which the melting point lay in the range of 204 to 205 °C.
Then `CC1CNc2c(cnc3cc(Cl)ccc23)O1` (stereo unspecified), with 239 to 241 °C; and `CN1C(=O)C2C3CCC(C3)C2(c2ccc3c(c2)CCCC3)C1=O` (stereo unspecified), with 108 to 114 °C; and `COc1cc(Nc2nccc(-c3cncs3)n2)cc(OC)c1OC`, with 171 °C.
To `O=c1c2cc(O)ccc2sc2c([N+](=O)[O-])ccc(Cl)c12` belongs above 300 °C.
`CC(=S)NC[C@H]1CN(c2ccc(N3CCN(c4nnc(C)s4)CC3)c(F)c2)C(=O)O1` came in with a melting point of 222 to 223 °C.
Then `CCOC(=O)Cc1cccc(Oc2ccccc2Cl)c1NS(C)(=O)=O`, with 145 to 149 °C; and `CCCNC(=O)NC1Cc2ccc(C3=NNC(=O)CC3)cc2C1` (stereo unspecified), with 214 to 216 °C; and `CNC(=O)CC1CN=C(c2cc3cc(Oc4ccc(S(C)(=O)=O)nc4)cc(OC4CCOCC4)c3[nH]2)S1` (stereo unspecified), with 143 to 144 °C.
Turning to `CC(O)=C(C(=O)OCc1ccccc1)N1C(=O)[C@@H](N2C(=O)c3ccccc3C2=O)[C@H]1COS(C)(=O)=O`, the melting point was 61 to 65 °C.
Then `NC(=O)CNC(=O)[C@@H]1CCCN1` (H-Pro-Gly-NH2), with 124 to 127 °C.
Then `OCc1cc(OC2CCCC2)c(OC(F)F)cn1`, with 85 to 86 °C; and `CC(=O)O[C@@H](C)C(=O)Nc1c(C(=O)c2ccccc2)[nH]c2cc(Cl)ccc12`, with 80 to 85 °C.
To `O=C(O)COc1ccc(SCc2ccc(OCc3ccc(OC(F)(F)F)cc3)cc2)c2c1CCC2` belongs 140 to 142 °C; to `CN1C(C(=O)Nc2nc3ccccc3s2)=C(O)c2ccc3ccccc3c2S1(=O)=O`, 262 °C; to `Clc1ccc2nc(Cl)c3[nH]c4ccccc4c3c2c1`, 265 to 266 °C.
For `Cc1cc(Oc2cccc(C(F)(F)F)c2)nn1C(N)=O`, the melting point lay within 76 to 77 °C.
Then `O=C(NCc1ccc(Cl)cc1)c1cnc2ccc(C#CCO)cn2c1=O`, with 179 to 181 °C.
Then `CCCc1sc2nc(CN(CC)CC)c(C(=O)OCC)c(-c3ccc(Cl)cc3)c2c1C`, with 82 to 83 °C; and `O=C=NC1(c2ccccc2)CCC2(CC1)OCCO2`, with 38 to 41 °C.
Then `O=C(NC(=S)Nc1ccccc1-c1ccc(F)cc1)c1ccccc1`, with 123 to 124 °C; and `COc1cccc(C(=O)c2cc3ccc(OC)cc3o2)c1`, with 63 to 65 °C.
In turn, `CON=C(C(=O)O)c1csc(=N)n1O` had a melting point of 209 to 210 °C.
Then `C=C(C)COc1ccc2c(C)cc(=O)oc2c1C(=O)C=Cc1cc(OC)c(OC)c(OC)c1`, with 128 to 130 °C.
Then `COc1cc(Nc2c(C#N)cnc3cc(/C=C/CCN4CCOCC4)ccc23)c(Cl)cc1Cl`, with 88 to 89 °C.
To `COc1cc(OC)nc(Oc2cccc3c2C(=O)OC3OC(C)=O)n1` (stereo unspecified) belongs 119 to 120 °C.
For the molecule `Cc1cc([N+](=O)[O-])sc1C(=O)c1sc(Nc2ccc(S(N)(=O)=O)cc2)nc1N`, the melting point fell in the range of 268 to 269 °C.
For the molecule `COc1cc(N2CCOCC2)ccc1Nc1nc(Nc2cc(F)cc3c2OCCNC3=O)ncc1Cl`, the melting point is above 230 °C.
To `Sc1nccn1Cc1ccsc1` belongs 130 to 131 °C; to `CCOC(=O)C(Cc1ccc(Cl)c(OC(F)(F)C(F)F)c1)C(=O)c1ccc(F)cc1` (stereo unspecified), 73 to 74 °C.
To `CC(C)(C)c1ccc(OP2N(c3ccccc3)P(Oc3ccc(C(C)(C)C)cc3C(C)(C)C)N2c2ccccc2)c(C(C)(C)C)c1` (stereo unspecified) belongs 162 to 166 °C; to `O=c1cc(Oc2ccccc2)c(-c2nc[nH]n2)cn1-c1ccccc1`, 275 to 276 °C.
Then `Cc1ccc(C(=O)Nc2ccc(CN3CCN(C)CC3)c(C(F)(F)F)c2)cc1C#Cc1ccc(NC2CCC2)nn1`, with 120 to 121 °C; and `c1ccc(Nc2nc(N3CCN(c4ccccc4)CC3)nc3c2SCC3)cc1`, with 174 to 175 °C.
For `COc1cc(CSc2ccccn2)nc(N)n1`, the melting point is 115 to 116 °C.
